Assay: In vivo biodistribution of ^225Ac complexes after intravenous injection
Design: species or system C57BL/6 mice
Experimental: In Vivo Biodistribution of ^225Ac Complexes of Macropa and DOTA. All experiments were approved by the Institutional Animal Care Committee (IACC) of the University of British Columbia and were performed in accordance with the Canadian Council on Animal Care Guidelines. A total of 9 female C57BL/6 mice (6-8 weeks old, 20-25 g) were used for the biodistribution study of each radiometal complex, n=3 for each time point.
Macropa (100 μL of a 1 mg/mL solution in NH4OAc) was diluted with 387 μL of NH4OAc (1 M, pH 7), and an aliquot (203 μL) of ^225Ac(NO3)3 (˜157 kBq) was then added; the pH of this solution was adjusted to 6.5-7 by the addition of 1 M NaOH (210 μL, trace metal grade). After 5 min at ambient temperature, the reaction solution was analyzed by TLC (0.4 M pH 4 sodium citrate as the eluent), which confirmed >95% radiochemical yield. The reaction was allowed to proceed overnight, and the radiochemical yield was again confirmed to be >95% the following morning. At this time, mice were anesthetized by 2% isoflurane, and approximately 100 μL (10-15 kBq) of the [^225Ac(macropa)]^+ complex were injected into the tail vein of each mouse. After injection, mice were allowed to recover and roam freely in their cages, and were euthanized by CO2 inhalation at 15 min, 1 h, or 5 h (n=3 at each time point) post-injection. Blood was collected by cardiac puncture and placed into an appropriate test tube for scintillation counting. Tissues collected included heart, liver, kidneys, lungs, small intestine, large intestine, brain, bladder, spleen, stomach, pancreas, bone, thyroid, tail, urine, and feces. Tissues were weighed and then counted with a calibrated gamma counter (Packard, Cobra II model 5002) using three energy windows: 60-120 keV (window A), 180-260 keV (window B), and 400-480 keV (window C). Counting was performed both immediately after sacrifice and after 7 days; counts were decay corrected from the time of injection and then converted to the percentage of injected dose (% ID) per gram of tissue (% ID/g). No differences were noted between the data; therefore, the biodistributions are reported using the data acquired immediately using window A.
The biodistribution studies of [^225Ac(DOTA)]^− and ^225Ac(NO3)3 were carried out as described above for [^225Ac(macropa)]^+, with the following modifications. [^225Ac(DOTA)]^− was prepared by adding ^225Ac(NO3)3 (338 μL, 1.1 MBq) to a solution of DOTA (100 μg, 20 mg/mL in H2O) in NH4OAc (467 μL, 0.15 M, pH 7). The pH of the solution was adjusted to 7 using NH4OAc (150 μL, 1 M, pH 7) and the solution was heated at 85° C. for 45 min. RCY>99% was confirmed by TLC as described above. [^225Ac(DOTA)]^− was diluted with saline to a final concentration of 0.05 MBq/100 μL, and 100 μL were injected into each mouse. ^225Ac(NO3)3 (˜58 μL, 0.4 MBq) was diluted and injected in the same manner as [^225Ac(DOTA)]^−. One mouse that was to be euthanized at the 5 h time point in the [^225Ac(DOTA)]^− study died shortly after injection. In the same manner, one mouse that was to be euthanized at the 1 h time point in the ^225Ac(NO3)3 study died.
The in vivo stability [^225Ac(macropa)]^+ was examined by comparing its biodistribution to those of ^225Ac(NO3)3 and [^225Ac(DOTA)]^−. C57BL/6 mice were injected via tail vein with 10-50 kBq of each radiometal complex and were sacrificed after 15 min, 1 h, or 5 h. The amount of ^225Ac retained in each organ was quantified by gamma counting and reported as the percent of injected dose per gram of tissue (% ID/g). The results of these studies are compiled in Tables 1-3. Inadequate stability of an ^225Ac complex leading to the loss of radioisotope in vivo is manifested by the accumulation of ^225Ac in the liver, spleen, and bone of mice.^[11,12,32] […] The biodistribution profile of [^225Ac(macropa)]^+ (FIG. 3B) differs markedly from that of ^225Ac(NO3)3. […]

[1] = 15 min after i.v. injection, energy window A (60-120 keV)
[2] = 15 min after i.v. injection, energy window B (180-260 keV)
[3] = 15 min after i.v. injection, energy window C (400-480 keV)
[4] = 1 h after i.v. injection, energy window A (60-120 keV)
[5] = 1 h after i.v. injection, energy window B (180-260 keV)
[6] = 1 h after i.v. injection, energy window C (400-480 keV)
[7] = 5 h after i.v. injection, energy window A (60-120 keV)
[8] = 5 h after i.v. injection, energy window B (180-260 keV)
[9] = 5 h after i.v. injection, energy window C (400-480 keV)
[10] = i.v. injection, C57BL/6 mice, up to 5 h

## O=C([O-])c1cccc(CN2CCOCCOCCN(Cc3cccc(C(=O)[O-])n3)CCOCCOCC2)n1.[225Ac+3] [[^225Ac(macropa)]^+]
[1]
  % ID/g in bladder: 46.74 % ID/g
  % ID/g in blood: 5.11 % ID/g
  % ID/g in bone (femur + joint): 2.52 % ID/g
  % ID/g in brain: 0.26 % ID/g
  % ID/g in feces: 0.91 % ID/g
  % ID/g in heart: 2.19 % ID/g
  % ID/g in kidneys: 27.55 % ID/g
  % ID/g in large intestines: 2.40 % ID/g
  % ID/g in liver: 2.28 % ID/g
  % ID/g in lungs: 5.98 % ID/g
  % ID/g in pancreas: 1.46 % ID/g
  % ID/g in small intestines: 2.64 % ID/g
  % ID/g in spleen: 2.52 % ID/g
  % ID/g in stomach: 2.97 % ID/g
  % ID/g in tail: 8.84 % ID/g
  % ID/g in thyroids: 28.23 % ID/g
  % ID/g in urine: 1378.82 % ID/g
[2]
  % ID/g in bladder: 47.64 % ID/g
  % ID/g in blood: 5.23 % ID/g
  % ID/g in bone (femur + joint): 2.69 % ID/g
  % ID/g in brain: 0.23 % ID/g
  % ID/g in feces: 1.04 % ID/g
  % ID/g in heart: 2.39 % ID/g
  % ID/g in kidneys: 27.86 % ID/g
  % ID/g in large intestines: 2.53 % ID/g
  % ID/g in liver: 2.17 % ID/g
  % ID/g in lungs: 5.83 % ID/g
  % ID/g in pancreas: 1.63 % ID/g
  % ID/g in small intestines: 2.59 % ID/g
  % ID/g in spleen: 2.55 % ID/g
  % ID/g in stomach: 3.29 % ID/g
  % ID/g in tail: 9.39 % ID/g
  % ID/g in thyroids: −2.22 % ID/g
  % ID/g in urine: 1541.60 % ID/g
[3]
  % ID/g in bladder: 64.68 % ID/g
  % ID/g in blood: 6.49 % ID/g
  % ID/g in bone (femur + joint): 3.74 % ID/g
  % ID/g in brain: 0.17 % ID/g
  % ID/g in feces: 1.26 % ID/g
  % ID/g in heart: 2.87 % ID/g
  % ID/g in kidneys: 33.46 % ID/g
  % ID/g in large intestines: 3.02 % ID/g
  % ID/g in liver: 2.72 % ID/g
  % ID/g in lungs: 7.55 % ID/g
  % ID/g in pancreas: 3.00 % ID/g
  % ID/g in small intestines: 3.46 % ID/g
  % ID/g in spleen: 3.79 % ID/g
  % ID/g in stomach: 3.45 % ID/g
  % ID/g in tail: 11.75 % ID/g
  % ID/g in thyroids: −6.46 % ID/g
  % ID/g in urine: 2387.66 % ID/g
[4]
  % ID/g in bladder: 6.23 % ID/g
  % ID/g in blood: 0.40 % ID/g
  % ID/g in bone (femur + joint): 0.31 % ID/g
  % ID/g in brain: 0.12 % ID/g
  % ID/g in feces: 0.28 % ID/g
  % ID/g in heart: 0.31 % ID/g
  % ID/g in kidneys: 13.36 % ID/g
  % ID/g in large intestines: 0.36 % ID/g
  % ID/g in liver: 0.75 % ID/g
  % ID/g in lungs: 0.51 % ID/g
  % ID/g in pancreas: 0.19 % ID/g
  % ID/g in small intestines: 1.10 % ID/g
  % ID/g in spleen: 0.51 % ID/g
  % ID/g in stomach: 0.41 % ID/g
  % ID/g in tail: 1.82 % ID/g
  % ID/g in thyroids: 3.18 % ID/g
  % ID/g in urine: 489.11 % ID/g
[5]
  % ID/g in bladder: 5.92 % ID/g
  % ID/g in blood: 0.39 % ID/g
  % ID/g in bone (femur + joint): 0.17 % ID/g
  % ID/g in brain: 0.12 % ID/g
  % ID/g in feces: 0.27 % ID/g
  % ID/g in heart: 0.20 % ID/g
  % ID/g in kidneys: 12.97 % ID/g
  % ID/g in large intestines: 0.22 % ID/g
  % ID/g in liver: 0.70 % ID/g
  % ID/g in lungs: 0.54 % ID/g
  % ID/g in pancreas: 0.12 % ID/g
  % ID/g in small intestines: 0.94 % ID/g
  % ID/g in spleen: 0.23 % ID/g
  % ID/g in stomach: 0.33 % ID/g
  % ID/g in tail: 1.82 % ID/g
  % ID/g in thyroids: 0.10 % ID/g
  % ID/g in urine: 517.19 % ID/g
[6]
  % ID/g in bladder: 9.00 % ID/g
  % ID/g in blood: 0.54 % ID/g
  % ID/g in bone (femur + joint): 0.70 % ID/g
  % ID/g in brain: 0.23 % ID/g
  % ID/g in feces: 0.69 % ID/g
  % ID/g in heart: 0.23 % ID/g
  % ID/g in kidneys: 17.38 % ID/g
  % ID/g in large intestines: 0.79 % ID/g
  % ID/g in liver: 1.08 % ID/g
  % ID/g in lungs: 0.84 % ID/g
  % ID/g in pancreas: 0.43 % ID/g
  % ID/g in small intestines: 1.62 % ID/g
  % ID/g in spleen: 0.48 % ID/g
  % ID/g in stomach: 0.17 % ID/g
  % ID/g in tail: 2.57 % ID/g
  % ID/g in thyroids: 8.34 % ID/g
  % ID/g in urine: 641.63 % ID/g
[7]
  % ID/g in bladder: 4.25 % ID/g
  % ID/g in blood: 0.01 % ID/g
  % ID/g in bone (femur + joint): 0.05 % ID/g
  % ID/g in brain: 0.02 % ID/g
  % ID/g in feces: 3.46 % ID/g
  % ID/g in heart: 0.10 % ID/g
  % ID/g in kidneys: 0.74 % ID/g
  % ID/g in large intestines: 0.49 % ID/g
  % ID/g in liver: 0.39 % ID/g
  % ID/g in lungs: 0.01 % ID/g
  % ID/g in pancreas: 0.10 % ID/g
  % ID/g in small intestines: 0.29 % ID/g
  % ID/g in spleen: 0.11 % ID/g
  % ID/g in stomach: 0.01 % ID/g
  % ID/g in tail: 0.14 % ID/g
  % ID/g in thyroids: 0.10 % ID/g
  % ID/g in urine: 12.78 % ID/g
[8]
  % ID/g in bladder: 3.69 % ID/g
  % ID/g in blood: 0.00 % ID/g
  % ID/g in bone (femur + joint): 0.02 % ID/g
  % ID/g in brain: −0.01 % ID/g
  % ID/g in feces: 3.49 % ID/g
  % ID/g in heart: −0.04 % ID/g
  % ID/g in kidneys: 0.78 % ID/g
  % ID/g in large intestines: 0.45 % ID/g
  % ID/g in liver: 0.36 % ID/g
  % ID/g in lungs: −0.05 % ID/g
  % ID/g in pancreas: −0.12 % ID/g
  % ID/g in small intestines: 0.29 % ID/g
  % ID/g in spleen: 0.09 % ID/g
  % ID/g in stomach: 0.04 % ID/g
  % ID/g in tail: 0.13 % ID/g
  % ID/g in thyroids: −6.94 % ID/g
  % ID/g in urine: 13.51 % ID/g
[9]
  % ID/g in bladder: 8.52 % ID/g
  % ID/g in blood: 0.04 % ID/g
  % ID/g in bone (femur + joint): 0.08 % ID/g
  % ID/g in brain: −0.01 % ID/g
  % ID/g in feces: 5.27 % ID/g
  % ID/g in heart: 0.28 % ID/g
  % ID/g in kidneys: 1.07 % ID/g
  % ID/g in large intestines: 0.68 % ID/g
  % ID/g in liver: 0.55 % ID/g
  % ID/g in lungs: 0.15 % ID/g
  % ID/g in pancreas: 0.13 % ID/g
  % ID/g in small intestines: 0.42 % ID/g
  % ID/g in spleen: 0.43 % ID/g
  % ID/g in stomach: 0.13 % ID/g
  % ID/g in tail: 0.28 % ID/g
  % ID/g in thyroids: 19.89 % ID/g
  % ID/g in urine: 22.27 % ID/g
i.v. injection, C57BL/6 mice
  route of excretion (in words): Most of the injected dose was renally excreted
[10]
  clearance from blood / mice (in words): rapidly cleared from mice
  organ accumulation (in words): did not accumulate in any organ

Source: patent US11554182B2, “Macrocyclic complexes of alpha-emitting radionuclides and their use in targeted radiotherapy of cancer” (CORNELL UNIVERSITY, priority 2017, dated 2023)
